Experimental data published in ChEMBL document CHEMBL1156311, “Discovery of sulfonamide-pyrazole gamma-secretase inhibitors” (Bioorg Med Chem Lett, 2010).
pIC50: −log10 of the molar value.

test: Inhibition of gamma-secretase; conditions: not given

| SMILES | pIC50 |
| --- | --- |
| O=S(=O)(c1ccc(Cl)cc1)N1[C@@H]2CCC[C@H]1C[C@@H](O)C2 (stereo in doubt; 8b) | 6.22 |
| O=S(=O)(c1ccc(Cl)cc1)N1C2CCCC1c1c(C(F)(F)F)n[nH]c1C2 (stereo not drawn) | 7.15 |
| O=S(=O)(c1ccc(Cl)cc1)N1C2CCCC1c1cn[nH]c1C2 (stereo not drawn) | 8.40 |
| Nc1ncc2c(n1)CC1CCCC2N1S(=O)(=O)c1ccc(Cl)cc1 (stereo not drawn) | 5.26 |
| O=S(=O)(c1ccc(Cl)cc1)N1C2CCCC1CC(=NO)C2 (racemic) | 5.48 |
| O=S(=O)(c1ccc(Cl)cc1)N1C2CCCC1c1cnoc1C2 (stereo not drawn) | 5.46 |
| O=S(=O)(c1ccc(Cl)cc1)N1C2CCCC1CCC2 | 5.89 |
| CSc1n[nH]c2c1C1CCCC(C2)N1S(=O)(=O)c1ccc(Cl)cc1 (stereo not drawn) | 6.41 |
| Cc1n[nH]c2c1C1CCCC(C2)N1S(=O)(=O)c1ccc(Cl)cc1 (stereo not drawn) | 7.19 |
| O=S(=O)(c1ccc(Cl)cc1)N1C2CCCC1c1c(C(F)F)n[nH]c1C2 (stereo not drawn) | 7.07 |
| O=S(=O)(c1ccc(Cl)cc1)N1C2CCCC1c1cncnc1C2 (stereo not drawn) | 5.33 |
| Cn1ncc2c1CC1CCCC2N1S(=O)(=O)c1ccc(Cl)cc1 (stereo not drawn) | < 5.00 |
| O=C1c2[nH]ncc2C2CCCC1N2S(=O)(=O)c1ccc(Cl)cc1 (stereo not drawn) | 8.10 |
| Nc1n[nH]c2c1C1CCCC(C2)N1S(=O)(=O)c1ccc(Cl)cc1 (stereo not drawn) | 6.98 |
| O=S(=O)(c1ccc(Cl)cc1)N1[C@@H]2CCC[C@H]1C[C@@H](O)C2 (stereo in doubt; 8a) | 5.52 |

The remaining lines, values ahead:

| pIC50 | SMILES |
| --- | --- |
| 7.15 | CC(=O)Nc1n[nH]c2c1C1CCCC(C2)N1S(=O)(=O)c1ccc(Cl)cc1 (stereo not drawn) |
| 6.19 | COc1cc(CN([C@@H]2CCCCNC2=O)S(=O)(=O)c2ccc(Cl)cc2)ccc1OCCc1scnc1C |
| < 5.00 | Cn1cc2c(n1)CC1CCCC2N1S(=O)(=O)c1ccc(Cl)cc1 (stereo not drawn) |
| 7.60 | O=C1NCCCC[C@H]1N(Cc1ccc(Br)cc1)S(=O)(=O)c1ccc(Cl)cc1 |
| < 5.00 | Nc1nc2c(s1)C1CCCC(C2)N1S(=O)(=O)c1ccc(Cl)cc1 (stereo not drawn) |
| < 5.00 | O=S(=O)(c1ccc(Cl)cc1)N1C2CCCC1c1cnc(O)nc1C2 (stereo not drawn) |
| < 5.00 | N[C@H]1C[C@H]2CCC[C@@H](C1)N2S(=O)(=O)c1ccc(Cl)cc1 |
| 5.10 | Cc1ccc(S(=O)(=O)C(=O)NC2CC3CCCC(C2)N3S(=O)(=O)c2ccc(Cl)cc2)cc1 (racemic) |
| 5.77 | CN1CCCC[C@@H](N(Cc2ccc(Br)cc2)S(=O)(=O)c2ccc(Cl)cc2)C1=O |
| 8.52 | O=S(=O)(c1ccc(Cl)cc1)N1C2CCCC1C(F)(F)c1[nH]ncc12 (stereo not drawn) |
| < 5.00 | CN(C)c1n[nH]c2c1C1CCCC(C2)N1S(=O)(=O)c1ccc(Cl)cc1 (stereo not drawn) |
| 5.05 | COc1ncc2c(n1)CC1CCCC2N1S(=O)(=O)c1ccc(Cl)cc1 (stereo not drawn) |
| < 5.00 | CNC1CC2CCCC(C1)N2S(=O)(=O)c1ccc(Cl)cc1 (racemic) |
| < 5.00 | CC(=O)NC1CC2CCCC(C1)N2S(=O)(=O)c1ccc(Cl)cc1 (racemic) |
| < 5.00 | CSc1ncc2c(n1)CC1CCCC2N1S(=O)(=O)c1ccc(Cl)cc1 (stereo not drawn) |
| 5.77 | C[C@@H]1CCC[C@H](C)N1S(=O)(=O)c1ccc(Cl)cc1 |

test: Drug level in FVB mouse plasma at 100 mg/kg, po after 3 hrs; type: ADME, organism-based; set-up: dose 100 mg/kg, route oral; conditions: not given

| SMILES | concentration at 3 h |
| --- | --- |
| O=S(=O)(c1ccc(Cl)cc1)N1C2CCCC1c1cn[nH]c1C2 (single isomer, unassigned; (+)) | 194 nM |

test: Drug level in FVB mouse cerebral cortex at 100 mg/kg, po after 3 hrs; type: ADME, organism-based; set-up: dose 100 mg/kg, route oral; conditions: read-out: Drug uptake

| SMILES | concentration at 3 h |
| --- | --- |
| O=S(=O)(c1ccc(Cl)cc1)N1C2CCCC1c1cn[nH]c1C2 (single isomer, unassigned; (+)) | 86 nM |
